Measured values as given in patent US8497228B2, “Active substance combinations with insecticidal and acaricidal properties” (Bayer Cropscience AG, priority 2007, dated 2013).

How the values were obtained:
[1] = tested on: mustard beetle larvae (Phaedon cochleariae); test: Phaedon cochleariae larvae test (Example B, cabbage leaves sprayed); conditions: 100 g/ha, spray
[2] = tested on: green peach aphid (Myzus persicae); test: Myzus persicae test (Example A1, cabbage leaves sprayed); format: in vivo; conditions: spray
[3] = tested on: army worm larvae (Spodoptera frugiperda); test: Spodoptera frugiperda larvae test (Example C, cabbage leaves sprayed); format: in vivo; conditions: spray
[4] = tested on: green peach aphid (Myzus persicae); test: Myzus persicae test (Example A2, cabbage leaves dipped); format: in vivo; conditions: dipping
Method: Cabbage leaves (Brassica oleracea) which are severely infested with the green peach aphid (Myzus persicae) are treated by dipping into the active substance preparation of the desired concentration.

O=C1C=C(N(CCF)Cc2ccc(Cl)nc2)CO1 [Compound I-4, 4-{[(6-chloropyrid-3-yl)methyl](2-fluoroethyl)amino}furan-2(5H)-one]
Destruction in % after 2 days [1]: 0%
Destruction in % after 1 day ([2]; 4 g/ha): 30%
Destruction in % after 6 days ([3]; 4 g/ha): 0%

O=C1C=C(N(Cc2ccc(Cl)nc2)CC(F)F)CO1 [Compound I-5, 4-{[(6-chloropyrid-3-yl)methyl](2,2-difluoroethyl)amino}furan-2(5H)-one]
Destruction in % after 6 days ([3]; 0.8 g/ha): 0%

CN(Cc1cnc(Cl)c(F)c1)C1=CC(=O)OC1 [Compound I-6, 4-{[(6-chloro-5-fluoropyrid-3-yl)methyl](methyl)amino}furan-2(5H)-one]
Destruction in % after 2 days [1]: 0%
Destruction in % after 1 day ([2]; 0.16 g/ha): 30%
Destruction in % after 6 days ([3]; 4 g/ha): 0%

CN(Cc1ccc(Cl)nc1)C1=CC(=O)OC1 [Compound I-10, 4-{[(6-chloropyrid-3-yl)methyl](methyl)amino}furan-2(5H)-one]
Destruction in % after 1 day ([4]; 0.8 ppm): 45%

Cc1cc(C(F)(C(F)(F)F)C(F)(F)F)ccc1NC(=O)c1cccc(Cl)c1C(=O)N[C@@H](C)CS(C)(=O)=O [Compound IIb, (S)-3-chloro-N^1-{2-methyl-4-[1,2,2,2-tetrafluoro-1-(trifluoromethyl)ethyl]phenyl}-N^2-(1-methyl-2-methylsulphonylethyl)phthalamide]
Destruction in % after 1 day ([4]; 100 ppm): 10%
Destruction in % after 1 day ([2]; 0.8 g/ha): 0%
Destruction in % after 6 days ([3]; 0.16 g/ha): 0%
Destruction in % after 6 days ([3]; 0.8 g/ha): 67%

Cc1cc(C(F)(C(F)(F)F)C(F)(F)F)ccc1NC(=O)c1cccc(I)c1C(=O)NC(C)(C)CS(C)(=O)=O [Flubendiamide, flubendiamide, reference compound]
Destruction in % after 2 days [1]: 17%
Destruction in % after 1 day ([2]; 0.16 g/ha): 0%
Destruction in % after 6 days ([3]; 0.8 g/ha): 33%
Destruction in % after 6 days ([3]; 4 g/ha): 67%
